This is an account of results in patent US20260049088A1, “TRICYCLIC HETEROCYCLIC DERIVATIVES, COMPOSITIONS AND USES THEREOF” (Danatlas Pharmaceuticals Co., Ltd., priority 2023, published 2026).

Structures are written as SMILES. pIC50: −log10 of the molar value.

T1 sequence (Q86W56 whole entry): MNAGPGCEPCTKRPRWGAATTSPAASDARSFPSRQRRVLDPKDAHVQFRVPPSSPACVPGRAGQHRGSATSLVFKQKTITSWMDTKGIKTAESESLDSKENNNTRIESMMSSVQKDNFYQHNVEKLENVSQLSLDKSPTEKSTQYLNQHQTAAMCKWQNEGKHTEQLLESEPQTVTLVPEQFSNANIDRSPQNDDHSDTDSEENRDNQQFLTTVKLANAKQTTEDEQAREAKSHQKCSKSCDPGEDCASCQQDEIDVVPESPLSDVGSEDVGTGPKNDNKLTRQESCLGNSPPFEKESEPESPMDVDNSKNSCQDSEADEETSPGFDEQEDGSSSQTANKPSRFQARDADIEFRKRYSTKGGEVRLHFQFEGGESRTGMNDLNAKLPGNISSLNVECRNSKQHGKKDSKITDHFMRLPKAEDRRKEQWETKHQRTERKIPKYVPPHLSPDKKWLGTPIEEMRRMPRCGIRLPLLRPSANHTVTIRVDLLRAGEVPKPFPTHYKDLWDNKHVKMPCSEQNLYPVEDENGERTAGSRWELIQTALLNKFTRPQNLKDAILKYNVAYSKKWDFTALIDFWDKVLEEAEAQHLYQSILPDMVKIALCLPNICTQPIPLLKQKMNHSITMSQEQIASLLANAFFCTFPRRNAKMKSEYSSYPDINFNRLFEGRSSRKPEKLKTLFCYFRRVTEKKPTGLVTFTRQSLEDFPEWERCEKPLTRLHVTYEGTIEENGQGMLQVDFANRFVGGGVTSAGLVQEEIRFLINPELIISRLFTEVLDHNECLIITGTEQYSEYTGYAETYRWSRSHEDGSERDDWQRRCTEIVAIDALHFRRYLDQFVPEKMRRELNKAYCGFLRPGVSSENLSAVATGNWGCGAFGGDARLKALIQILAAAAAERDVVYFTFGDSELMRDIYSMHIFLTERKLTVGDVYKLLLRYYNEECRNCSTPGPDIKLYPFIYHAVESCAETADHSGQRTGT

This assay addresses T1, hPARG (Homo sapiens, UniProt Q86W56).
T1 construct: made in house; host or cells: E. coli
Kind of assay: PARG enzymatic activity assay (HTRF). The assay is classed as biochemical. As to conditions: C-terminal His6-tag hPARG 65 pM, biotinylated-NAD ribosylated PARP1 substrate 8 nM. In a few lines:
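His6-tagged hPARG from E. coli (65 pM final) preincubated 60 min RT with compound (10-point 4-fold dilution), then 8 nM biotinylated NAD-ribosylated PARP1 added for 10 min RT in Tris pH 7.4 buffer with EDTA, EGTA, DTT, KCl. HTRF detection (Eu-streptavidin/anti-His XL665, 620/665 nm); IC50 from 4-parameter fit against DMSO and no-enzyme controls.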
On the technique in general: In TR-FRET formats the signal depends on donor and acceptor labels being close together.
As usually defined, the pIC50 is the IC50 on a negative log10 scale, so that one unit is a factor of ten. Read a low pIC50 as a large IC50. `CN(CCN1CCS(=O)(=O)CC1)c1ncnc2c1c1ccc(S(=O)(=O)NC3(C#N)CC3)cc1n2-c1nnc(C(F)F)s1` [Example 78, N-(1-Cyanocyclopropyl)-9-(5-(difluoromethyl)-1,3,4-thiadiazol-2-yl)-4-((2-(1,1-dioxidothiomorpholino)ethyl)(methyl)amino)-9H-pyrimido[4,5-b]indole-7-sulfonamide] gave a pIC50 of no less than 7.00.

Regarding `N#CC1(NS(=O)(=O)c2ccc3c4c(N5C[C@H]6C[C@@H]5CC6(F)F)ncnc4n(-c4nnc(C(F)F)s4)c3c2)CC1` [Example 40, N-(1-Cyanocyclopropyl)-4-((1R,4R)-5,5-difluoro-2-azabicyclo [2.2.1]heptan-2-yl)-9-(5-(difluoromethyl)-1,3,4-thiadiazol-2-yl)-9H-pyrimido[4,5-b]indole-7-sulfonamide], the negative-log IC50 (pIC50) was 6.00 to 7.00.

With `N#CC1(NS(=O)(=O)c2ccc3c4c(OCC5COCCN5)ncnc4n(-c4nnc(C(F)F)s4)c3c2)CC1` (stereo not shown) [Example 92, N-(1-cyanocyclopropyl)-9-(5-(difluoromethyl)-1,3,4-thiadiazol-2-yl)-4-(morpholin-3-ylmethoxy)-9H-pyrimido[4,5-b]indole-7-sulfonamide], the pIC50 is 6.00 to 7.00.

`N#CC1(NS(=O)(=O)c2ccc3c4c(SCCN5CCOCC5)ncnc4n(-c4nnc(C(F)F)s4)c3c2)CC1` [Example 83, N-(1-Cyanocyclopropyl)-9-(5-(difluoromethyl)-1,3,4-thiadiazol-2-yl)-4-((2-morpholinoethyl)thio)-9H-pyrimido[4,5-b]indole-7-sulfonamide] had a pIC50 of 6.00 to 7.00.

`CN1CCN(CCN(C)c2ncnc3c2c2ccc(S(=O)(=O)NC4(C#N)CC4)cc2n3-c2nnc(C(F)F)s2)C1=O` [Example 60, N-(1-Cyanocyclopropyl)-9-(5-(difluoromethyl)-1,3,4-thiadiazol-2-yl)-4-(methyl(2-(3-methyl-2-oxoimidazolidin-1-yl)ethyl)amino)-9H-pyrimido[4,5-b]indole-7-sulfonamide] had a negative-log IC50 (pIC50) of no less than 7.00.

As for `CCN(CC)C1CCN(c2ncnc3c2c2ccc(S(=O)(=O)NC4(C#N)CC4)cc2n3-c2nnc(C(F)F)s2)CC1` [Example 28, N-(1-Cyanocyclopropyl)-4-(4-(diethylamino)piperidin-1-yl)-9-(5-(difluoromethyl)-1,3,4-thiadiazol-2-yl)-9H-pyrimido[4,5-b]indole-7-sulfonamide], the negative-log IC50 (pIC50) was no less than 7.00.

Turning to `CN(CCc1ccccn1)c1ncnc2c1c1ccc(S(=O)(=O)NC3(C#N)CC3)cc1n2-c1nnc(C(F)F)s1` [Example 76, N-(1-Cyanocyclopropyl)-9-(5-(difluoromethyl)-1,3,4-thiadiazol-2-yl)-4-(methyl(2-(pyridin-2-yl)ethyl)amino)-9H-pyrimido[4,5-b]indole-7-sulfonamide], the pIC50 is no less than 7.00.

`CN1CC2CN(c3ncnc4c3c3ccc(S(=O)(=O)NC5(C#N)CC5)cc3n4-c3nnc(C(F)F)s3)CC2C1` (stereo not shown) [Example 29, N-(1-Cyanocyclopropyl)-9-(5-(difluoromethyl)-1,3,4-thiadiazol-2-yl)-4-(5-methylhexahydropyrrolo[3,4-c]pyrrol-2(1H)-yl)-9H-pyrimido[4,5-b]indole-7-sulfonamide] had a pIC50 of no less than 7.00.

The molecule `N#CC1(NS(=O)(=O)c2ccc3c4c(CCCN5CCOCC5)ncnc4n(-c4nnc(C(F)F)s4)c3c2)CC1` [Example 87, N-(1-Cyanocyclopropyl)-9-(5-(difluoromethyl)-1,3,4-thiadiazol-2-yl)-4-(3-morpholinopropyl)-9H-pyrimido[4,5-b]indole-7-sulfonamide] had a negative logarithm of the IC50 (pIC50) of no less than 7.00.

On to `CN(c1ncnc2c1c1ccc(S(=O)(=O)NC3(C#N)CC3)cc1n2-c1nnc(C(F)F)s1)C1COC1` [Example 58, N-(1-Cyanocyclopropyl)-9-(5-(difluoromethyl)-1,3,4-thiadiazol-2-yl)-4-(methyl(oxetan-3-yl)amino)-9H-pyrimido[4,5-b]indole-7-sulfonamide], for which the pIC50 is 6.00 to 7.00.

The molecule `N#CC1(NS(=O)(=O)c2ccc3c4c(O[C@@H]5CCOC5)ncnc4n(-c4nnc(C(F)F)s4)c3c2)CC1` [Example 8, (R)-N-(1-Cyanocyclopropyl)-9-(5-(difluoromethyl)-1,3,4-thiadiazol-2-yl)-4-((tetrahydrofuran-3-yl)oxy)-9H-pyrimido[4,5-b]indole-7-sulfonamide] had a pIC50 of no less than 7.00.

`CN(Cc1ccccn1)c1ncnc2c1c1ccc(S(=O)(=O)NC3(C#N)CC3)cc1n2-c1nnc(C(F)F)s1` [Example 22, N-(1-Cyanocyclopropyl)-9-(5-(difluoromethyl)-1,3,4-thiadiazol-2-yl)-4-(methyl(pyridin-2-ylmethyl)amino)-9H-pyrimido[4,5-b]indole-7-sulfonamide] had a negative logarithm of the IC50 (pIC50) of 6.00 to 7.00.

As to `N#CC1(NS(=O)(=O)c2ccc3c4c(N5CCn6ccnc6C5)ncnc4n(-c4nnc(C(F)F)s4)c3c2)CC1` [Example 44, N-(1-Cyanocyclopropyl)-9-(5-(difluoromethyl)-1,3,4-thiadiazol-2-yl)-4-(5,6-dihydroimidazo[1,2-a]pyrazin-7(8H)-yl)-9H-pyrimido[4,5-b]indole-7-sulfonamide], the pIC50 was no less than 7.00.

`CN(CCn1cccn1)c1ncnc2c1c1ccc(S(=O)(=O)NC3(C#N)CC3)cc1n2-c1nnc(C(F)F)s1` [Example 24, 4-((2-(1H-Pyrazol-1-yl)ethyl)(methyl)amino)-N-(1-cyanocyclopropyl)-9-(5-(difluoromethyl)-1,3,4-thiadiazol-2-yl)-9H-pyrimido[4,5-b]indole-7-sulfonamide] showed a pIC50 of 6.00 to 7.00.

Regarding `CCN(CC)[C@@H]1CCN(c2ncnc3c2c2ccc(S(=O)(=O)NC4(C#N)CC4)cc2n3-c2nnc(C(F)F)s2)C[C@@H]1F` [Example 33, N-(1-Cyanocyclopropyl)-4-((3S,4R)-4-(diethylamino)-3-fluoropiperidin-1-yl)-9-(5-(difluoromethyl)-1,3,4-thiadiazol-2-yl)-9H-pyrimido[4,5-b]indole-7-sulfonamide], the pIC50 was no less than 7.00.

`CN(CCN1CCOCC1)c1ncnc2c1c1ccc(S(=O)(=O)NC3(C#N)CC3)cc1n2-c1nnc(C(F)F)s1` [Example 13, N-(1-cyanocyclopropyl)-9-(5-(difluoromethyl)-1,3,4-thiadiazol-2-yl)-4-(methyl(2-morpholinoethyl)amino)-9H-pyrimido[4,5-b]indole-7-sulfonamide] showed a pIC50 of no less than 7.00.

As for `CCN(CC)[C@H]1CCN(c2ncnc3c2c2ccc(S(=O)(=O)NC4(C#N)CC4)cc2n3-c2nnc(C(F)F)s2)C[C@@H]1F` [Example 32, N-(1-Cyanocyclopropyl)-4-((3S,4S)-4-(diethylamino)-3-fluoropiperidin-1-yl)-9-(5-(difluoromethyl)-1,3,4-thiadiazol-2-yl)-9H-pyrimido[4,5-b]indole-7-sulfonamide], the pIC50 was no less than 7.00.

`N#CC1(NS(=O)(=O)c2ccc3c4c(NC(=O)CN5CCOCC5)ncnc4n(-c4nnc(C(F)F)s4)c3c2)CC1` [Example 82, N-(7-(N-(1-Cyanocyclopropyl)sulfamoyl)-9-(5-(difluoromethyl)-1,3,4-thiadiazol-2-yl)-9H-pyrimido[4,5-b]indol-4-yl)-2-morpholinoacetamide] had a pIC50 of no less than 7.00.

Regarding `CCN1CCCC12CCN(c1ncnc3c1c1ccc(S(=O)(=O)NC4(C#N)CC4)cc1n3-c1nnc(C(F)F)s1)CC2` [Example 52, N-(1-Cyanocyclopropyl)-9-(5-(difluoromethyl)-1,3,4-thiadiazol-2-yl)-4-(1-ethyl-1,8-diazaspiro[4.5]decan-8-yl)-9H-pyrimido[4,5-b]indole-7-sulfonamide], the pIC50 is no less than 7.00.
